Several values for one entry are separate records, joined by “and”; a condition that tells them apart may be missing. Equal entries are not always repeated.
Experiments:
H9 cells [1] = assay: Multiplexed gene integration of three fluorescent protein transposons with MTX step selection, flow cytometry; type: cell-based, human; conditions: for cells expressing triple transgenes: 200 nM MTX 1 week
Procedure: (§1) H9 cells were cultured in DMEM with 10% FBS. The optimized nucleofection protocol for H9 cells (Lonza) was followed (program X-001, Nucleofector Kit V). Per nucleofection, 1×10^6 cells were used with varying amounts of MC DNA. Cells were grown for a week after nucleofection to achieve stable transfection.
(§2) Live cells were selected based on propidium iodide exclusion by adding propidium iodide in the flow cytometry buffer to 2 μg/ml. Flow cytometry analysis was carried out on a MACSQuant Analyzer (Miltenyi Biotec) and LSRII (BD Biosciences). Collected data was analyzed with FlowJo software. Appropriate negative controls (untransfected H9 cells with and without propidium iodide staining, as well as cells transfected with single genes for GFP, BFP, and mCherry) were used for compensation and gating. A Becton Dickinson FACSAria II was used for cell sorting. Part of flow cytometry work was conducted at the UW Immunology Flow Cytometry Facility.
H9 cells were nucleofected with three minicircles containing three different reporter genes (maxGFP, mCherry, and BFP) in transposon cassettes and the SB100X transposase minicircle. Stably-transduced cells were then selected for 7 days with 200 nM and cell population assessed by flow cytometry analysis. […] Initial transfection efficiency assessed 24 hours after nucleofection, was 68% (FIG. 6A). The stably transduced population was 37±1.4%, reflecting 54% integration efficiency. Of this population, 19±0.6% expressed two or three different fluorescent proteins. […] Cell viability rebounded to ˜70% during the second round of selection due to further selection for overexpression of the DHFRdm gene.

H9 cells [2] = assay: MTX selection and transgene persistence in H9 cells stably transfected with T3/GFP-T2A-DHFRdm transposon, flow cytometry; type: cell-based, human
Procedure: as §1, §2

H9 cells [3] = assay: Transposon copy number by qPCR in MTX-selected H9 cells; type: cell-based, human
Procedure: Genomic DNA was extracted with Puregene Kit A according to the manufacturer's instructions (Qiagen), and qPCR was performed using a 7300 Real-Time PCR System (Applied Biosystems) using Universal SYBR Green Supermix (BioRad). Primers for qPCR were designed using Primer3 software: […]
MaxGFP primers are specific for the maxGFP gene in the transposon. Standard curves were generated using genomic DNA of a H9 clone with a single insertion of transposon (“gold standard”) obtained by limiting dilution method. Copy number was calculated using the […] (Schmittgen, T. D. and Livak, K. J. (2008), incorporated in its entirety herein). Characterization of SBTS Integration Distribution.
Plates were incubated for 2-3 weeks, after which clonal populations were moved to larger plates and expanded. GFP expression was confirmed by flow cytometry. Relative RT-qPCR analysis was performed using DNA of 60 individual clones in order to determine transposon copy number.
First, a “gold standard” clone with a single copy of integrated transposon was generated by limiting dilution method. […] A trend of increasing average transposon copy number with increasing selection pressure was observed. […] Statistical difference was assessed by Student's t-test.
Sixty clones were generated by limiting dilution method, GFP expression confirmed by flow cytometry, genomic DNA isolated, and the number of GFP genes per haploid genome analyzed by RT-PCR. Most clones (˜65%) contained multiple copies of GFP.

[4] = system: cells transfected with GFP:SB; assay: GFP expression in cells transfected with GFP:SB (SB100X DNA or RNA) under MTX; type: cell-based; conditions: cells transfected with 5 ug of GFP:SB; 50 uM and 100 uM MTX tested
Procedure: Cells were electroporated with SB100X (DNA or RNA) or transposons carrying genes for GFP, CARS, or GFP/mCherry/BFP. FIG. 20A relates to lymphocytes; FIG. 20B relates to single cells; FIG. 20C relates to live cells; FIG. 20D relates to GFP; FIG. 20E relates to a time-line.
As shown in the figure are several scattergrams of the cells that are transfected with GFP gene carrying transposons. Several samples of cells are transfected with DNA comprising a gene for GFP expression (2.5 ug and 5 ug), mcGFP only, and RNA (1 ug and 3 ug).
FIGS. 24A-24B relate to expression of GFP in cells transfected with GFP:SB. […] FIG. 24B relates to the experiment was performed using RNA, however, DNA has a higher efficiency for leading to expression of the protein.

[5] = 60 clones from population selected with 200 nM MTX

CN(Cc1cnc2nc(N)nc(N)c2n1)c1ccc(C(=O)N[C@@H](CCC(=O)O)C(=O)O)cc1 [MTX, methotrexate]
cells expressing triple transgenes (H9 cells [1]; then 500 nM MTX additional week): 38.5±1.0%
cells expressing triple transgenes (H9 cells [1]; then 1000 nM MTX additional week): 53.1±0.3%
cell viability (H9 cells [1]; during the second round of selection): ~70%
cells expressing three transgene products (H9 cells [1]; two-step selection, two successive MTX selection rounds): 50%
decrease in mean GFP expression by 4 weeks post-MTX withdrawal (H9 cells [2]; 50 nM MTX selection): 28%
decrease in mean GFP expression by 4 weeks post-MTX withdrawal (H9 cells [2]; 100 nM MTX selection): 27%
GFP+ population four weeks post-MTX withdrawal (H9 cells [2]; 200 nM MTX for 2 weeks): 97%
decrease in mean GFP expression by 4 weeks post-MTX withdrawal (H9 cells [2]; 200 nM MTX selection): 21%
GFP+ population four weeks post-MTX withdrawal (H9 cells [2]; all populations (50, 100, 200 nM MTX for 2 weeks)): > 90%
GFP+ cells (H9 cells [2]; by 7 days post-selection, all conditions (50 to 200 nM MTX)): > 94%
average number of integration events in clones (H9 cells [3]; [5]): 1.8 and 1.78±0.69
clones containing multiple copies of GFP (H9 cells [3]; [5]): ~65%
average integration events (transposon copy number per human haploid genome) (H9 cells [3]; cell population selected with 200 nM MTX, RT-qPCR): 2.1±0.45
MTX concentration at which cells express GFP optimally [4]: 50 µM
